From patent publication US20090155247A1, “Methods of Using Death Receptor Agonists and EGFR Inhibitors” (priority 2005, published 2009)

Tested on: H460 non-small lung cancer cells
Assay: Growth of H460 tumor xenografts in vivo
Conditions: H460 cells injected subcutaneously in mice; compared with vehicle-treated mice; treatments as provided in FIG. 6
Procedure: Mice were injected subcutaneously with H460 non-small lung cancer cells (ATCC) (5 million cells per mouse).

Compound	tumor growth
C#Cc1cccc(Nc2ncnc3cc(OCCOC)c(OCCOC)cc23)c1 [Tarceva™, N-(3-ethynylphenyl)-6,7-bis(2-methoxyethoxy)-4-quinazolinamine]	markedly delayed tumor growth
Apo2L/TRAIL: Apo2L/TRAIL polypeptide consisting of amino acids 114-281 of FIG. 1	markedly delayed tumor growth
